Earlier results in patent publication US10029116B2, “Method for the treatment of acne” (DUSA PHARMACEUTICALS, INC., priority 2012, dated 2018).

Tests used:
protoporphyrin IX = settings: mouse skin
[1] = test system: protoporphyrin IX in acne lesions

time for protoporphyrin levels to return to near pretreatment baseline (protoporphyrin IX): about 18 hours
time to peak protoporphyrin IX concentration (protoporphyrin IX): about six
time by which the ability of light to excite protoporphyrin IX in acne lesions disappeared ([1]; no occlusive covering): ≤ 24 h
persistence of the ability of light to excite protoporphyrin IX in skin having acne lesions ([1]; occlusive covering placed over the skin): ≤ 24 h
Compound: NCC(=O)CCC(=O)O [ALA, aminolevulinic acid]
